Read-outs that look alike come from different tables or passages of the source.
Assays:
[1] = molecular target: T1, purified LasB protein from P. aeruginosa (Pseudomonas aeruginosa, UniProt P14756); assay: Fluorometric assay to determine Ki (Abz-Ala-Gly-Leu-Ala-p-Nitro-Benzyl-Amide substrate); format: biochemical
T1 construct: purchased Merck or Charles River Laboratories
Method: (§1) Experiments were therefore conducted (1) to measure the potency of inhibition of compounds of the invention against purified Pseudomonas aeruginosa LasB enzyme and also experiments were conducted (2) to measure the ability of compounds of the invention to inhibit LasB-catalysed elastin degradation. The first assay uses a commercial fluorescent synthetic peptide and purified LasB enzyme. The LasB hydrolysis kinetics are measured allowing the determination of the IC50 and Ki of the inhibitors; the second is a more physiological assay using dialysed Pseudomonas aeruginosa supernatant as source of enzyme, plus its natural substrate Elastin. It is an "end point assay" that determines the percentage of LasB inhibition by each compound for one particular time point and inhibitor concentration. Technical details are described below:
This assay uses commercially available substrate (Abz-Ala-Gly-Leu-Ala-p-Nitro-Benzyl-Amide (Ex: 340 nm, Em: 415 nm) from Peptide International) and purified LasB protein from P. aeruginosa (provided by Merck or Charles River Laboratories). It is performed to determine LasB elastase activity and assess compound inhibition in 96-well plate format. All compounds of Formula (I) were assessed using the method described below.
Method: 10 to 140 ng/ml purified LasB is incubated with 250 µM Abz-Ala-Gly-Leu-Ala-p-Nitro-Benzyl-Amide in 50 mM Tris-HCl pH 7.4, 2.5 mM CaCl2, 0.01% of Triton X100 at 37°C. LasB activity (corresponding to fluorescence emission induced by substrate hydrolysis) is measured over 30 min at 37°C with a fluorescence plate reader such as the Perkin Elmer Envision or similar. Different range of inhibitor concentrations are routinely assessed depending of inhibitor potency from 0.0016 to 200 µM (2-fold dilutions series) in order to determine IC50.
The equation used to calculate the Ki from IC50 is: Ki = IC50 / (1+([S]/Km)) where [S] = 250 µM and Km = 214 µM.

LasB = molecular target: T2, LasB (Pseudomonas aeruginosa, UniProt P14756); assay: Elastin assay to determine % inhibition (Elastin Congo-Red, dialysed culture supernatant); format: biochemical, P. aeruginosa PAO1; details: read-out: Elastin hydrolysis % inhibition @ 50 / 25 µM inhibitor concentration
T2 construct: uses as source of enzyme dialysed supernatant from P. aeruginosa PAO1; endogenous in cells; host or cells: P. aeruginosa PAO1 culture supernatant, filtered and dialysed
T2 sequence (P14756 198-498): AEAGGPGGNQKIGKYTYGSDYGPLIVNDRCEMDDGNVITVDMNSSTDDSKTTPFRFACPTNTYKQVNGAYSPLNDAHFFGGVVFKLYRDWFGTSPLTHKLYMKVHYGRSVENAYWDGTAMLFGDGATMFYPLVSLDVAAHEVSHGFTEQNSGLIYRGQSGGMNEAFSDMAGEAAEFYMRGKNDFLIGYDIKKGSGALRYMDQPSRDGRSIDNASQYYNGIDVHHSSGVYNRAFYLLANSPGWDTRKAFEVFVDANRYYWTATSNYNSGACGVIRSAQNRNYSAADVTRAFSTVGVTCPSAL
Method: as §1
The Elastin assay uses as source of enzyme dialysed supernatant from P. aeruginosa PAO1 and the Elastin Congo-Red as substrate. The natural LasB substrate, elastin, is complexed with the congo-red dye (Elastin Congo-Red, ECR). The elastolysis activity from the culture supernatant will degrade elastin and release the congo-red dye into the supernatant. This red dye release can be measured with a spectrophotometer.
Method: To determine LasB elastase activity and assess compound inhibition, an overnight culture of P. aeruginosa strain PAO1 is diluted in LB medium. After reaching an OD600nm of 0.6, this culture is diluted and incubated for additional 18-24 hours in a shaking incubator. Culture supernatants are recovered by centrifugation and filtrated through a […] filter. These supernatants are dialysed (filtration molecules < 20kDa) into a 50 mM Tris-HCl pH 7.4, 2.5 mM CaCl2 solution at 4°C under agitation for 24 hours. Supernatant dialysed is then mixed volume/volume with the ECR suspension (20 mg/mL of ECR in 100 mM Tris-HCl pH 7.4 buffer supplemented with 1 mM CaCl2) supplemented with Triton X100 (final concentration of 0.01%) in presence of DMSO (positive control) and/or different concentrations of compound (routinely 50 to 1.56 µM). As a negative control, the dialysed supernatant is replaced by Tris-HCl solution (50 mM Tris-HCl pH 7.4, 2.5 mM CaCl2). The mixed reaction is then incubated overnight in a 37°C shaking incubator. The reaction supernatant is recovered by centrifugation and the release of congo-red is measured by its absorbance at 495 nm (OD495nm).
Percentage inhibition is determined using the following equation: ((OD495nmvalue of positive control−OD495nmvalue of negative control)−(OD495nmvalue of treated supernatant−OD495nmvalue of positive control))/(OD495nmvalue of positive control−OD495nmvalue of negative control) × 100. [formula]

T1 sequence (P14756 198-498): as above

SMILES | Ki [1] | inhibition at 25 µM (LasB) | Ki ([1]; Ki calculated from IC50, [S] = 250 µM, Km = 214 µM, 37°C, pH 7.4)
O=C(O)CC1(C(=O)NCc2ncc(-c3ccccc3)s2)Cc2ccccc2C1 [Example 2, 2-[2-[(5-phenylthiazol-2-yl)methylcarbamoyl]indan-2-yl]acetic acid] | 200 to 10000 nM | 10 to 60% | 
O=C(O)CC1(C(=O)NCc2nc(-c3ccccc3)cs2)Cc2cc(F)c(F)cc2C1 [Example 3, 2-[5,6-difluoro-2-[(4-phenylthiazol-2-yl)methylcarbamoyl]indan-2-yl]acetic acid] | < 50 nM | > 75% | 
COc1cccc(-c2csc(CNC(=O)C3(CC(=O)O)Cc4ccccc4C3)n2)c1 [Example 5, 2-[2-[[4-(3-methoxyphenyl)thiazol-2-yl]methylcarbamoyl]indan-2-yl]acetic acid] | 50 to 200 nM | 60 to 75% | 
COc1ccc(-c2csc(CNC(=O)C3(CC(=O)O)Cc4ccccc4C3)n2)cc1 [Example 6, 2-[2-[[4-(4-methoxyphenyl)thiazol-2-yl]methylcarbamoyl]indan-2-yl]acetic acid] | 50 to 200 nM | > 75% | 
O=C(O)CC1(C(=O)NCc2nc(-c3ccc(Cl)cc3)cs2)Cc2ccccc2C1 [Example 7, 2-[2-[[4-(4-chlorophenyl)thiazol-2-yl]methylcarbamoyl]indan-2-yl]acetic acid] | 50 to 200 nM | 60 to 75% | 
O=C(O)CC1(C(=O)NCc2nc(-c3cccnc3)cs2)Cc2ccccc2C1 [Example 8, 2-[2-[[4-(3-pyridyl)thiazol-2-yl]methylcarbamoyl]indan-2-yl]acetic acid] | 50 to 200 nM | 60 to 75% | 
O=C(O)CC1(C(=O)NCc2nc(-c3ccccn3)cs2)Cc2ccccc2C1 [Example 9, 2-[2-[[4-(2-pyridyl)thiazol-2-yl]methylcarbamoyl]indan-2-yl]acetic acid] | 200 to 10000 nM | 60 to 75% | 
O=C(O)CC1(C(=O)NCc2nc(-c3ccccc3O)cs2)Cc2ccccc2C1 [Example 10, 2-[2-[[4-(2-hydroxyphenyl)thiazol-2-yl]methylcarbamoyl]indan-2-yl]acetic acid] | 50 to 200 nM | 10 to 60% | 
O=C(O)CC1(C(=O)NCc2nc(-c3ccc(O)cc3)cs2)Cc2ccccc2C1 [Example 11, 2-[2-[[4-(4-hydroxyphenyl)thiazol-2-yl]methylcarbamoyl]indan-2-yl]acetic acid] | 50 to 200 nM | 60 to 75% | 
O=C(O)CC1(C(=O)NCc2nc(-c3cccc(O)c3)cs2)Cc2ccccc2C1 [Example 12, 2-[2-[[4-(3-hydroxyphenyl)thiazol-2-yl]methylcarbamoyl]indan-2-yl]acetic acid] | 50 to 200 nM | 60 to 75% | 
O=C(O)CC1(C(=O)NCc2nc(-c3ccccc3OCCO)cs2)Cc2ccccc2C1 [Example 13, 2-[2-[[4-[2-(2-hydroxyethoxy)phenyl]thiazol-2-yl]methylcarbamoyl]indan-2-yl]acetic acid] | 50 to 200 nM | 60 to 75% | 
NCCOc1ccccc1-c1csc(CNC(=O)C2(CC(=O)O)Cc3ccccc3C2)n1 [Example 14, 2-[2-[[4-[2-(2-aminoethoxy)phenyl]thiazol-2-yl]methylcarbamoyl]indan-2-yl]acetic acid] | 200 to 10000 nM | 10 to 60% | 
CN(C)CCNC(=O)c1ccc(-c2csc(CNC(=O)C3(CC(=O)O)Cc4ccccc4C3)n2)cc1 [Example 15, 2-[2-[[4-[4-[2-(dimethylamino)ethylcarbamoyl]phenyl]thiazol-2-yl]methylcarbamoyl]indan-2-yl]acetic acid] | 200 to 10000 nM | 60 to 75% | 
CN1CCN(C(=O)c2ccc(-c3csc(CNC(=O)C4(CC(=O)O)Cc5ccccc5C4)n3)cc2)CC1 [Example 16, 2-[2-[[4-[4-(4-methylpiperazine-1-carbonyl)phenyl]thiazol-2-yl]methylcarbamoyl]indan-2-yl]acetic acid] | 200 to 10000 nM | 60 to 75% | 
CN(C)[C@@H]1CCN(C(=O)c2ccc(-c3csc(CNC(=O)C4(CC(=O)O)Cc5ccccc5C4)n3)cc2)C1 [Example 19, 2-[2-[[4-[4-[(3R)-3-(dimethylamino)pyrrolidine-1-carbonyl]phenyl]thiazol-2-yl]methylcarbamoyl]indan-2-yl]acetic acid] | 200 to 10000 nM | 60 to 75% | 
CN(C)C1CN(C(=O)c2ccc(-c3csc(CNC(=O)C4(CC(=O)O)Cc5ccccc5C4)n3)cc2)C1 [Example 20, 2-[2-[[4-[4-[3-(dimethylamino)azetidine-1-carbonyl]phenyl]thiazol-2-yl]methylcarbamoyl]indan-2-yl]acetic acid] | 200 to 10000 nM | 60 to 75% | 
CN1CCN(C(=O)c2cccc(-c3csc(CNC(=O)C4(CC(=O)O)Cc5ccccc5C4)n3)c2)CC1 [Example 23, 2-[2-[[4-[3-(4-methylpiperazine-1-carbonyl)phenyl]thiazol-2-yl]methylcarbamoyl]indan-2-yl]acetic acid] | 200 to 10000 nM | 60 to 75% | 
CN1CCN(c2ccc(-c3csc(CNC(=O)C4(CC(=O)O)Cc5ccccc5C4)n3)cc2)CC1 [Example 26, 2-[2-[[4-[4-(4-methylpiperazin-1-yl)phenyl]thiazol-2-yl]methylcarbamoyl]indan-2-yl]acetic acid] | 50 to 200 nM | 60 to 75% | 
CN(C)C1CN(c2ccc(-c3csc(CNC(=O)C4(CC(=O)O)Cc5ccccc5C4)n3)cc2)C1 [Example 27] |  | 60 to 75% | 50 to 200 nM
CN1CCN(c2cccc(-c3csc(CNC(=O)C4(CC(=O)O)Cc5ccccc5C4)n3)c2)CC1 [Example 28, 2-[2-[[4-[3-(4-methylpiperazin-1-yl)phenyl]thiazol-2-yl]methylcarbamoyl]indan-2-yl]acetic acid] | 200 to 10000 nM | 60 to 75% | 
CN1C[C@@H]2CN(c3ccc(-c4csc(CNC(=O)C5(CC(=O)O)Cc6ccccc6C5)n4)cc3)C[C@@H]2C1 [Example 30, 2-[2-[[4-[4-[(3aS,6aR)-2-methyl-1,3,3a,4,6,6a-hexahydropyrrolo[3,4-c]pyrrol-5-yl]phenyl]thiazol-2-yl]methylcarbamoyl]indan-2-yl]acetic acid] | 200 to 10000 nM | 10 to 60% | 
COc1cc(N2CCN(C)CC2)ccc1-c1csc(CNC(=O)C2(CC(=O)O)Cc3ccccc3C2)n1 [Example 31, 2-[2-[[4-[2-methoxy-4-(4-methylpiperazin-1-yl)phenyl]thiazol-2-yl]methylcarbamoyl]indan-2-yl]acetic acid] | 50 to 200 nM | 60 to 75% | 
COc1cc(N2CC(N(C)C)C2)ccc1-c1csc(CNC(=O)C2(CC(=O)O)Cc3ccccc3C2)n1 [Example 32, 2-[2-[[4-[4-[3-(dimethylamino)azetidin-1-yl]-2-methoxy-phenyl]thiazol-2-yl]methylcarbamoyl]indan-2-yl]acetic acid] | 50 to 200 nM | > 75% | 
CN1CCN(c2ccc(-c3csc(CNC(=O)C4(CC(=O)O)Cc5ccccc5C4)n3)cn2)CC1 [Example 34, 2-[2-[[4-[6-(4-methylpiperazin-1-yl)-3-pyridyl]thiazol-2-yl]methylcarbamoyl]indan-2-yl]acetic acid] | 50 to 200 nM | 60 to 75% | 
CN(C)C1CN(c2ccc(-c3csc(CNC(=O)C4(CC(=O)O)Cc5ccccc5C4)n3)cn2)C1 [Example 35, 2-[2-[[4-[6-[3-(dimethylamino)azetidin-1-yl]-3-pyridyl]thiazol-2-yl]methylcarbamoyl]indan-2-yl]acetic acid] | 50 to 200 nM | 60 to 75% | 
